Reference: publication PMC11930985 (Nature Communications, 2025)
Values after ≈ are worked out from the molar mass of the structure shown. Read-outs that look alike come from different tables or passages of the source.

Experiments:
[1] = tested on: Flt1; set-up: method as in Investigator's Brochure (IB) version 5.0; conditions: ref Investigator's Brochure (IB) version 5.0; cited from earlier work
[2] = tested on: pS6 S235/S236; test: CyTOF maximal inhibition in Undefined/Immature Myeloid cells: pS6; assay type: in vivo; conditions: Homo sapiens, N = 12 patients, read-out: EC50 (± standard error), pS6 S235/S236 inhibition
Description: Pharmacodynamic endpoints included the measurement of inhibition of pAXL, pERK, pAKT, pS6 and pSTAT1/3/5 in blast cells (defined as cells with abnormal surface marker expression as compared to healthy donor peripheral blood mononuclear cells and undefined/immature myeloid cells (defined as cells carrying myeloid markers but lacking distinguishing terminal differentiation markers). Mass cytometry time of flight (CyTOF) was used for the determination of the pharmacodynamic markers using a previously validated and tested panel of mass-tagged antibodies[39],[40]. The antibodies in the panel are listed in Supplementary Table 5. Briefly, fixed leukocytes from peripheral blood were barcoded using a 20-plex metal barcoding kit (Standard Biotools, Cell-ID 201060) according to manufacturer’s protocol, allowing all the samples from a single individual to be stained and analysed in parallel. All analysis runs included barcoded peripheral blood mononuclear cells (PBMCs) from at least one healthy donor and an identical barcoded reference sample (mix of PBMCs from six healthy donors). […]
For each population, marker, and sample, the 95th percentile of the non-transformed expression values was calculated. […]

[3] = target: Ret; set-up: method as in Investigator's Brochure (IB) version 5.0; conditions: ref Investigator's Brochure (IB) version 5.0; cited from earlier work
[4] = tested on: bacterial mutation; conditions: ref Investigator's Brochure (IB) version 5.0; cited from earlier work
[5] = tested on: human lymphocytes; set-up: method as in Investigator's Brochure (IB) version 5.0; conditions: ref Investigator's Brochure (IB) version 5.0; cited from earlier work
[6] = tested on: CYP3A4/5; set-up: method as in Investigator's Brochure (IB) version 5.0; conditions: ref Investigator's Brochure (IB) version 5.0; cited from earlier work
[7] = tested on: Flt4; set-up: method as in Investigator's Brochure (IB) version 5.0; conditions: ref Investigator's Brochure (IB) version 5.0; cited from earlier work
[8] = tested on: healthy male subjects; set-up: method as in Protocol BGBC001; conditions: ref Protocol BGBC001, cited from earlier work
[9] = tested on: Ret; set-up: method as in Investigator's Brochure (IB) version 5.0; conditions: ref Investigator's Brochure (IB) version 5.0; cited from earlier work; remark: listed apart in the source

Nc1nc(Nc2ccc3c(c2)CC[C@@H](N2CCCC2)CC3)nn1-c1cc2c(nn1)-c1ccccc1CCC2 [Bemcentinib]
IC50 [1]: > 1000 nM | EC50 [2]: 0.1187 ± 0.0011 µg/mL (≈ 0.234 µM) | Kd [3]: 73 nM | Ames bacterial mutation assay result [4]: negative | In vitro mammalian cell cytogenetic study result [5]: negative | Substrate and time-dependent inhibition of CYP3A4/5 activity [6]: modest | IC50 [7]: > 1000 nM | Non-Cardiac Chest Pain, Maximum Grade (CTCAE version 4.0) ([8]; 50 mg, 4 fasted, 1 fed): One | Orthostatic hypotension, Maximum Grade (CTCAE version 4.0) ([8]; 100 mg, 4 fasted, 2 fed): One | Abdominal Distension x 2, Maximum Grade (CTCAE version 4.0) ([8]; 150 mg, 4 fasted, 1 fed): One | Diarrhoea, Maximum Grade (CTCAE version 4.0) ([8]; 400 mg, 4 fasted, 2 fed): One | Diarrhoea, Maximum Grade (CTCAE version 4.0) ([8]; 600 mg, 4 fasted): One | Flatulence, Maximum Grade (CTCAE version 4.0) ([8]; 600 mg, 4 fasted): One | Nausea x 2, Maximum Grade (CTCAE version 4.0) ([8]; 600 mg, 4 fasted): One | Nausea, Maximum Grade (CTCAE version 4.0) ([8]; 1000 mg, 4 fasted): One | Diarrhoea, Maximum Grade (CTCAE version 4.0) ([8]; 1500 mg, 4 fasted): One | Dizziness, Maximum Grade (CTCAE version 4.0) ([8]; 1500 mg, 4 fasted): One | Headache, Maximum Grade (CTCAE version 4.0) ([8]; 1500 mg, 4 fasted): One | Nausea, Maximum Grade (CTCAE version 4.0) ([8]; 1500 mg, 4 fasted): Two | Vomiting, Maximum Grade (CTCAE version 4.0) ([8]; 1500 mg, 4 fasted): Two | Serious adverse events (SAE) ([8]; single dose 50-1500 mg): No serious adverse events | IC50 [9]: 38 nM
